ChEMBL document CHEMBL1151449, “In vitro activity of DC-159a, a new broad-spectrum fluoroquinolone, compared with that of other agents against drug-susceptible and -resistant pneumococci” (2008)
≈ marks a conversion by molar mass, not a printed value.

Legend:
Type in all cases: functional
[1] = system: Streptococcus pneumoniae; experiment: Antibacterial activity against Streptococcus pneumoniae HMC 1070 harboring S81F mutation in quinolone-resistant determining regions of GyrA gene, D83N mutation in QRDR of ParC gene and I460V mutation in QRDR of ParE gene by agar dilution method
[2] = system: Streptococcus pneumoniae; experiment: Antibacterial activity against Streptococcus pneumoniae HMC 1076 harboring S81F mutation in quinolone-resistant determining regions of GyrA gene, D83N mutation in QRDR of ParC gene and I460V mutation in QRDR of ParE gene by agar dilution method
[3] = system: Streptococcus pneumoniae; experiment: Antibacterial activity against Streptococcus pneumoniae HMC 1146 harboring S81F mutation in quinolone-resistant determining regions of GyrA gene, and D435N mutation in QRDR of ParE gene by agar dilution method
[4] = system: Streptococcus pneumoniae; experiment: Antibacterial activity against Streptococcus pneumoniae HMC 1150 harboring S81C mutation in quinolone-resistant determining regions of GyrA gene, S79F mutation in QRDR of ParC gene and I460V mutation in QRDR of ParE gene by agar dilution method
[5] = system: Streptococcus pneumoniae; experiment: Antibacterial activity against Streptococcus pneumoniae HMC 2538 harboring S81Y mutation in quinolone-resistant determining regions of GyrA gene, S79F, K137N mutation in QRDR of ParC gene and I460V mutation in QRDR of ParE gene showing efflux to ciprofloxacin, levofloxacin, gatifloxacin by agar dilution method
[6] = system: Streptococcus pneumoniae; experiment: Antibacterial activity against Streptococcus pneumoniae HMC 1059 harboring S81F mutation in quinolone-resistant determining regions of GyrA gene, S79F, K137N mutation in QRDR of ParC gene and I460N mutation in QRDR of ParE gene by agar dilution method
[7] = system: Streptococcus pneumoniae; experiment: Antibacterial activity against Streptococcus pneumoniae HMC 1072 harboring S81F mutation in quinolone-resistant determining regions of GyrA gene, S79Y mutation in QRDR of ParC gene and I460V mutation in QRDR of ParE gene by agar dilution method
[8] = system: Streptococcus pneumoniae; experiment: Antibacterial activity against Streptococcus pneumoniae HMC 1077 harboring S81Y and S79F mutation in quinolone-resistant determining regions of GyrA and ParC genes respectively by agar dilution method
[9] = system: Streptococcus pneumoniae; experiment: Antibacterial activity against penicillin-resistant and quinolone-susceptible Streptococcus pneumoniae HMC 3583 expressing mefA by broth microdilution method
[10] = system: Streptococcus pneumoniae; experiment: Antibacterial activity against penicillin-, quinolone-resistant Streptococcus pneumoniae HMC 1541 harboring mutation in L4 protein by broth microdilution method
[11] = system: Streptococcus pneumoniae; experiment: Antibacterial activity against macrolide-, quinolone-susceptible and penicillin-intermediate Streptococcus pneumoniae HMC 100 after 50 passages by broth microdilution method
[12] = system: Streptococcus pneumoniae; experiment: Antibacterial activity against penicillin-susceptible, quinolone-resistant Streptococcus pneumoniae HMC 1072 expressing ermB and harboring S81F mutation in quinolone-resistant determining regions of GyrA gene, S79Y mutation in QRDR of ParC gene and I460V mutation in QRDR of ParE gene after 50 passages by broth microdilution method
[13] = system: Streptococcus pneumoniae; experiment: Antibacterial activity against macrolide-, quinolone-susceptible and penicillin-intermediate Streptococcus pneumoniae HMC 99 harboring S81Y and S79Y mutation in quinolone-resistant determining regions of GyrA and ParC genes respectively after 41 passages with moxifloxacin measured after 10 daily antibiotic-free subculturing by multi-step resistance selection technique
[14] = system: Streptococcus pneumoniae; experiment: Antibacterial activity against macrolide-, quinolone-susceptible and penicillin-intermediate Streptococcus pneumoniae HMC 100 harboring S81Y and S79Y mutation in quinolone-resistant determining regions of GyrA and ParC genes respectively after 42 passages with levofloxacin measured after 10 daily antibiotic-free subculturing by multi-step resistance selection technique
[15] = system: Streptococcus pneumoniae; experiment: Antibacterial activity against penicillin-resistant and quinolone-susceptible Streptococcus pneumoniae HMC 228 expressing ermB and harboring S81F mutation in quinolone-resistant determining regions of GyrA gene, D83N mutation in QRDR of ParC gene and I460V mutation in QRDR of ParE gene after 28 passages with DC-159a measured after 10 daily antibiotic-free subculturing by multi-step resistance selection technique
[16] = system: Streptococcus pneumoniae; experiment: Antibacterial activity against penicillin-resistant and quinolone-susceptible Streptococcus pneumoniae HMC 228 expressing ermB and harboring S81F mutation in quinolone-resistant determining regions of GyrA gene, S79Y mutation in QRDR of ParC gene and I460V mutation in QRDR of ParE gene after 36 passages with moxifloxacin measured after 10 daily antibiotic-free subculturing by multi-step resistance selection technique
[17] = system: Streptococcus pneumoniae; experiment: Antibacterial activity against penicillin-resistant and quinolone-susceptible Streptococcus pneumoniae HMC 3583 expressing mefA and harboring S81F mutation in quinolone-resistant determining regions of GyrA gene, D83N mutation in QRDR of ParC gene and I460V mutation in QRDR of ParE gene after 49 passages with DC-159a measured after 10 daily antibiotic-free subculturing by multi-step resistance selection technique
[18] = system: Streptococcus pneumoniae; experiment: Antibacterial activity against penicillin-resistant and quinolone-susceptible Streptococcus pneumoniae HMC 3583 expressing mefA and harboring S81F mutation in quinolone-resistant determining regions of GyrA gene and I460V, D435N mutation in QRDR of ParE gene after 46 passages with gatifloxacin measured after 10 daily antibiotic-free subculturing by multi-step resistance selection technique
[19] = system: Streptococcus pneumoniae; experiment: Antibacterial activity against azithromycin-susceptible Streptococcus pneumoniae ATCC 49619 by agar dilution method
[20] = system: Streptococcus pneumoniae; experiment: Antibacterial activity against azithromycin-resistant Streptococcus pneumoniae […] by agar dilution method
[21] = system: Streptococcus pneumoniae; experiment: Antibacterial activity against quinolone-susceptible Streptococcus pneumoniae ATCC 49619 by agar dilution method
[22] = system: Streptococcus pneumoniae; experiment: Antibacterial activity against Streptococcus pneumoniae HMC 1156 harboring S81F and S79F mutation in quinolone-resistant determining regions of GyrA and ParC genes respectively showing efflux to ciprofloxacin, gemifloxacin by agar dilution method
[23] = system: Streptococcus pneumoniae; experiment: Antibacterial activity against penicillin-, macrolide-susceptible and quinolone-resistant Streptococcus pneumoniae HMC 1074 harboring S81F mutation in quinolone-resistant determining regions of GyrA gene, S79F mutation in QRDR of ParC gene and I460V mutation in QRDR of ParE gene by broth microdilution method
[24] = system: Streptococcus pneumoniae; experiment: Antibacterial activity against macrolide-, quinolone-susceptible and penicillin-intermediate Streptococcus pneumoniae HMC 99 by broth microdilution method
[25] = system: Streptococcus pneumoniae; experiment: Antibacterial activity against quinolone-susceptible and penicillin-intermediate Streptococcus pneumoniae HMC 441 expressing ermB by broth microdilution method
[26] = system: Streptococcus pneumoniae; experiment: Antibacterial activity against quinolone-susceptible and penicillin-intermediate Streptococcus pneumoniae HMC 5048 expressing mefA by broth microdilution method
[27] = system: Streptococcus pneumoniae; experiment: Antibacterial activity against penicillin-, macrolide-susceptible and quinolone-resistant Streptococcus pneumoniae HMC 1074 harboring S81F, E85K mutation in quinolone-resistant determining regions of GyrA gene, S79F mutation in QRDR of ParC gene and I460V mutation in QRDR of ParE gene after 27 passages with gemifloxacin measured after 10 daily antibiotic-free subculturing by multi-step resistance selection technique

SMILES	MIC [9] [µg/mL]	MIC [10] [µg/mL]	MIC [11] [µg/mL]	MIC [13] [µg/mL]	MIC [14] [µg/mL]	MIC [15] [µg/mL]	MIC [16] [µg/mL]	MIC [17] [µg/mL]	MIC [18] [µg/mL]	MIC50 [19] [µg/mL]	MIC90 [19] [µg/mL]	MIC50 [20] [µg/mL]	MIC50 [21] [µg/mL]	MIC90 [21] [µg/mL]	MIC [23] [µg/mL]	MIC [24] [µg/mL]	MIC [25] [µg/mL]	MIC [26] [µg/mL]	MIC [27] [µg/mL]	further results
COc1c(N2CC3(CC3)[C@](C)(N)C2)c(F)cc2c(=O)c(C(=O)O)cn([C@@H]3C[C@@H]3F)c12.O	0.12	1	0.5	1	1	1	1	1	1	0.12	0.5	0.12	0.12	0.12	1	0.12	0.12	0.12	4	MIC [1]: 1 µg/mL; MIC [2]: 0.5 µg/mL; MIC [3]: 1 µg/mL; MIC [4]: 0.5 µg/mL; MIC [5]: 1 µg/mL; MIC [6]: 1 µg/mL; MIC [7]: 1 µg/mL; MIC [8]: 1 µg/mL; MIC [12]: 1 µg/mL; MIC90 [20]: 0.12 µg/mL; MIC [22]: 1 µg/mL
CC[C@H]1OC(=O)[C@H](C)[C@@H](O[C@H]2C[C@@](C)(OC)[C@@H](O)[C@H](C)O2)[C@H](C)[C@@H](O[C@@H]2O[C@H](C)C[C@H](N(C)C)[C@H]2O)[C@](C)(O)C[C@@H](C)CN(C)[C@H](C)[C@@H](O)[C@]1(C)O [AZITHROMYCIN]	2 (≈ 2.67 µM)	> 64	0.03 (≈ 0.0401 µM)	0.016 (≈ 0.0214 µM)	0.03 (≈ 0.0401 µM)	> 64	> 64	0.25 (≈ 0.334 µM)	0.25 (≈ 0.334 µM)	0.12 (≈ 0.16 µM)	0.12 (≈ 0.16 µM)	> 64	1 (≈ 1.34 µM)	> 64	0.03 (≈ 0.0401 µM)	0.016 (≈ 0.0214 µM)	> 64	4 (≈ 5.34 µM)	0.016 (≈ 0.0214 µM)	–
